{"source": "ChEMBL document CHEMBL2074555", "about": "(Biochem Pharmacol, 1992)"}
{"target": "ATP-dependent translocase ABCB1 (Mus musculus, UniProt P21447)", "sequence (P21447 whole entry)": "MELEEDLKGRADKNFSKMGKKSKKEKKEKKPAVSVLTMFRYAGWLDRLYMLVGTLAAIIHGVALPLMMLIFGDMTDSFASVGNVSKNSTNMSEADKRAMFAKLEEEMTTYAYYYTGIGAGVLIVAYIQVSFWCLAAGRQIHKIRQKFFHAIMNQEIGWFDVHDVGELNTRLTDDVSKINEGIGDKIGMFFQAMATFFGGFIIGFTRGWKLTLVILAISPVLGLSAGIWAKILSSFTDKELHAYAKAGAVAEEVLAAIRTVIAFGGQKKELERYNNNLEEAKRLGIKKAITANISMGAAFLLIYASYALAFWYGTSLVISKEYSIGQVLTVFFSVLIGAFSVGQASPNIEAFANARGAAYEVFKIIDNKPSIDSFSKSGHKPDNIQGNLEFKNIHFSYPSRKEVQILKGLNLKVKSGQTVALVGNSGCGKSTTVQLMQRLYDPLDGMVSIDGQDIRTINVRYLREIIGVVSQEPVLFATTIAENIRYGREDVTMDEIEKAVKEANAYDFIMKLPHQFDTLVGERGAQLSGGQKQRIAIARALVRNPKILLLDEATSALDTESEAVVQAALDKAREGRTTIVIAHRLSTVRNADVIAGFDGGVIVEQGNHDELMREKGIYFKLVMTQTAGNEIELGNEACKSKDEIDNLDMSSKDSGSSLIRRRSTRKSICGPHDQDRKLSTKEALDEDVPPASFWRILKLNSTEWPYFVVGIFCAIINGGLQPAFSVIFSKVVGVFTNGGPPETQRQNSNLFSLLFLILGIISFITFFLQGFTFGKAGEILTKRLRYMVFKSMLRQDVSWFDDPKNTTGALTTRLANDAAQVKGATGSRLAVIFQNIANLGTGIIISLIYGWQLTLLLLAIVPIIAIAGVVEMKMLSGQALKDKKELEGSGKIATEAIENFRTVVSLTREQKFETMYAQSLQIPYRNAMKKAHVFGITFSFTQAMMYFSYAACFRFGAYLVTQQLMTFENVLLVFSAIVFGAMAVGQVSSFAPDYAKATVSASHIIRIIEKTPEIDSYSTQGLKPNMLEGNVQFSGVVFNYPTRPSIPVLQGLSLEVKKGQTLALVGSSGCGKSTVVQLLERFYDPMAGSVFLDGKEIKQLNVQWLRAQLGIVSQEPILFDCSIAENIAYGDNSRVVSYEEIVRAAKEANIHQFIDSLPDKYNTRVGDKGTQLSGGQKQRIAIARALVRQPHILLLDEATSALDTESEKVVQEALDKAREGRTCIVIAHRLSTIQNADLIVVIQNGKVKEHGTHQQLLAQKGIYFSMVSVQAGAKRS", "assay": "TP_TRANSPORTER: increase in Vinblastine intracellular accumulation in F4-6RADR cells", "format": "functional, cell-based"}
{"molecule": "COc1cccc(CCN(C)CCCC(C#N)(c2ccc(OC)c(OC)c2)C(C)C)c1", "note": "(stereo not drawn)", "Activity": "inhibitor [+]"}
{"molecule": "CCOC(=O)C1=C(C)NC(C)=C(C(=O)OC)C1c1cccc([N+](=O)[O-])c1", "note": "(stereo not drawn) [NITRENDIPINE]", "Activity": "inhibitor [+]"}
{"molecule": "COC(=O)C1=C(C)NC(C)=C(C(=O)OCCCN2CCC(c3ccccc3)(c3ccccc3)CC2)[C@H]1c1cccc([N+](=O)[O-])c1", "note": "[NIGULDIPINE]", "Activity": "inhibitor [+]"}
{"molecule": "COC(=O)C1=C(C)NC(C)=C(C(=O)OC(C)C)C1c1cccc2nonc12", "note": "(stereo not drawn) [ISRADIPINE]", "Activity": "inhibitor [+]"}
{"molecule": "COCCOC(=O)C1=C(C)NC(C)=C(C(=O)OC(C)C)C1c1cccc([N+](=O)[O-])c1", "note": "(stereo not drawn) [NIMODIPINE]", "Activity": "inhibitor [+]"}
{"molecule": "COc1ccc(CCN(C)CCCC(C#N)(c2cc(OC)c(OC)c(OC)c2)C(C)C)cc1OC", "note": "(stereo not drawn) [GALLOPAMIL]", "Activity": "inhibitor [+]"}
{"molecule": "CC(C)C(C#N)(CCCN(C)CCc1ccccc1)c1ccccc1", "note": "(stereo not drawn) [EMOPAMIL]", "Activity": "inhibitor [+]"}
{"molecule": "CCOC(=O)C1=C(C)NC(C)=C(C(=O)OC)C1c1cccc(Cl)c1Cl", "note": "(stereo not drawn) [FELODIPINE]", "Activity": "inhibitor [+]"}
